Our source for the % of inhibition, % of control and % binding values is ChEMBL document CHEMBL5465560, “Selectivity Literature for EUbOPEN Chemogenomic Library” (2024).

Experiment [1] deals with Phosphatidylinositol 4-kinase beta (Homo sapiens, UniProt Q9UBF8). The experiment is described as follows: Selectivity interaction (Adapta Assay) EUB0001632a PI4KB. As to conditions: at 10 µM.
Experiment [2] deals with T1, Serine/threonine-protein kinase Chk1 (Homo sapiens) (UniProt O14757).
T1 sequence (whole entry): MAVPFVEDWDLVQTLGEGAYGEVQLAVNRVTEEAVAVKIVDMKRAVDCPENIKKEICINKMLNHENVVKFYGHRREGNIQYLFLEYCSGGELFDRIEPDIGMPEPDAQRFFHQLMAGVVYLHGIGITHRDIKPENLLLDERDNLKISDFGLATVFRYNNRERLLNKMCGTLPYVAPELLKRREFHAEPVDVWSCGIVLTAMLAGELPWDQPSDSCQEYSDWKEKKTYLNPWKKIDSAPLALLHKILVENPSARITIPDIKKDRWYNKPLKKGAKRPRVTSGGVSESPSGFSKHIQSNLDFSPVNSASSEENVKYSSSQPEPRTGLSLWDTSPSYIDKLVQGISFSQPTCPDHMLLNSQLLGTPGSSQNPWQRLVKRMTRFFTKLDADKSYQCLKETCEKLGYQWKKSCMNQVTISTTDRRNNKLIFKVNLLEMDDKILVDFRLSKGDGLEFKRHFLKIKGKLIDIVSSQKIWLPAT
As to conditions: at 10 µM.

Experiment [3] concerns the target T2, Mitogen-activated protein kinase 15 (Homo sapiens) (UniProt Q8TD08).
T2 sequence (whole entry): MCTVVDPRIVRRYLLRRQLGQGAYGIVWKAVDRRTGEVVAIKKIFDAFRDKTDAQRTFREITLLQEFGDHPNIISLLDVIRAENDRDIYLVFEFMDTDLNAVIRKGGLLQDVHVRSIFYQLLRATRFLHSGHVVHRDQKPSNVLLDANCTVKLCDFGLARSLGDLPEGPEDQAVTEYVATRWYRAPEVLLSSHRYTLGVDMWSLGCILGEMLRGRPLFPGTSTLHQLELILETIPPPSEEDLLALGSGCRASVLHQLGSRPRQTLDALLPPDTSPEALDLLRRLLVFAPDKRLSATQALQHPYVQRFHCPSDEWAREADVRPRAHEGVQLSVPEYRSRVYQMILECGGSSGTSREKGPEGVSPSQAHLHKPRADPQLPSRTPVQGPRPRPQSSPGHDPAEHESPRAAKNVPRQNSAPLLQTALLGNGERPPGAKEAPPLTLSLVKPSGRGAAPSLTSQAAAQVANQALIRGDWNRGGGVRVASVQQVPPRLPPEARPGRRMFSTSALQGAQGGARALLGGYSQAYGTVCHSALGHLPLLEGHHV
Nature of the experiment: Selectivity interaction (KinomeScan (DiscoverX)) EUB0000695a MAPK15. As to conditions: at 100 nM.

Experiment [4] deals with T3, cGMP-dependent protein kinase 1 (Homo sapiens) (UniProt Q13976).
T3 sequence (whole entry): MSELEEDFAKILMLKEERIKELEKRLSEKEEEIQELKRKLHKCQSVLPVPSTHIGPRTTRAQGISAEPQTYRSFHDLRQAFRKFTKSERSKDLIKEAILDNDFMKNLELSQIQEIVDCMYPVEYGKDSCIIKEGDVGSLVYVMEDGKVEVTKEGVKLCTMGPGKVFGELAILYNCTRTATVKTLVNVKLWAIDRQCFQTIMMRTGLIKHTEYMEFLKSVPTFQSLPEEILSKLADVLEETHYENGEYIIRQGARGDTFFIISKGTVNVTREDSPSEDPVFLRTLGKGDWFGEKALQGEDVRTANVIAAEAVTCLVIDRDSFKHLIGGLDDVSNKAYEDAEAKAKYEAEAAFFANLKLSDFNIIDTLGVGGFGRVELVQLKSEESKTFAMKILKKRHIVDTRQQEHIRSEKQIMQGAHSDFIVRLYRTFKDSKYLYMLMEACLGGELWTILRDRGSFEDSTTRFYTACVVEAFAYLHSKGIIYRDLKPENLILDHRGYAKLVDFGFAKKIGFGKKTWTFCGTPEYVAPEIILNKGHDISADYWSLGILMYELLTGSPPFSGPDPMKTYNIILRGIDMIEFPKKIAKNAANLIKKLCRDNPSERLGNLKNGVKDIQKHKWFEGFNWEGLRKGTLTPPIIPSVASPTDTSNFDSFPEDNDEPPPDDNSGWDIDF
The experiment is described as follows: Selectivity interaction (KinomeScan (DiscoverX)) EUB0000607a PRKG1. As to conditions: at 10 µM.

Experiment [5] addresses T4, Protein kinase C zeta type (Homo sapiens) (UniProt Q05513).
T4 sequence (whole entry): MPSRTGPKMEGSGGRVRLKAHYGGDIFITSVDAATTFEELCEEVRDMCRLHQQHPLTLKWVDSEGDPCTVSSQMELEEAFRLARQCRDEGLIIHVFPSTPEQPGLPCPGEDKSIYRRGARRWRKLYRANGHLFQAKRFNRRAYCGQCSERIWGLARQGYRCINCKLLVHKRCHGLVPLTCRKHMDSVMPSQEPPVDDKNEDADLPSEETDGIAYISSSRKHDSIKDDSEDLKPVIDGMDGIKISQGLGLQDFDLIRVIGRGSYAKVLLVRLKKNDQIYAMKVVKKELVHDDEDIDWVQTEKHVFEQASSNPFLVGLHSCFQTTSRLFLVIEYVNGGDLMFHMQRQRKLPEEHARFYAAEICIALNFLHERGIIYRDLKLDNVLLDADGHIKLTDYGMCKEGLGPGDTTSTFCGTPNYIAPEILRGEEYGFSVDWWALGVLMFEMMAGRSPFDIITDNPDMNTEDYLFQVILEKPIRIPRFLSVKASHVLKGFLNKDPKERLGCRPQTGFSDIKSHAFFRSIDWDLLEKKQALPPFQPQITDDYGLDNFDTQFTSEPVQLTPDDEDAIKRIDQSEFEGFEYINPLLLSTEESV
The experiment is described as follows: Selectivity interaction (ProQinase) EUB0000171b PRKCZ. To be noted: at 1 µM.

For experiment [6], the target named is Casein kinase I isoform alpha (Homo sapiens, UniProt P48729). Nature of the experiment: Selectivity interaction (KinomeScan (DiscoverX)) EUB0000655a CSNK1A1. As to conditions: at 10 µM.
Casein kinase I isoform alpha, sequence (P48729 2-337 limits assumed): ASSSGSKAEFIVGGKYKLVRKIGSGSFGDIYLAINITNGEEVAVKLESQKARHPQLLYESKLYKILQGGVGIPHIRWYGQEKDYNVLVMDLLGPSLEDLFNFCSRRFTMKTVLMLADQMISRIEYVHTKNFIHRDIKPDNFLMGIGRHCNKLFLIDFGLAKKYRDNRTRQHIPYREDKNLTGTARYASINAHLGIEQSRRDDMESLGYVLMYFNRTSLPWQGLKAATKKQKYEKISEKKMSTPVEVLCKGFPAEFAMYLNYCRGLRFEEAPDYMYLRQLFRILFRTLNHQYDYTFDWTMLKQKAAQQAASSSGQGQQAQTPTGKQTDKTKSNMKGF
Experiment [7] has as its target Ephrin type-A receptor 5 (Homo sapiens) (UniProt P54756). The experiment is described as follows: Selectivity interaction (KinomeScan (DiscoverX)) EUB0000092b EPHA5. To be noted: at 10 µM.
For experiment [8], the target named is Calcium/calmodulin-dependent protein kinase type 1G (Homo sapiens) (UniProt Q96NX5). Nature of the experiment: Selectivity interaction (KinomeScan (DiscoverX)) EUB0000229b CAMK1G. As to conditions: at 10 µM.
Calcium/calmodulin-dependent protein kinase type 1G (Homo sapiens), sequence (Q96NX5 whole entry): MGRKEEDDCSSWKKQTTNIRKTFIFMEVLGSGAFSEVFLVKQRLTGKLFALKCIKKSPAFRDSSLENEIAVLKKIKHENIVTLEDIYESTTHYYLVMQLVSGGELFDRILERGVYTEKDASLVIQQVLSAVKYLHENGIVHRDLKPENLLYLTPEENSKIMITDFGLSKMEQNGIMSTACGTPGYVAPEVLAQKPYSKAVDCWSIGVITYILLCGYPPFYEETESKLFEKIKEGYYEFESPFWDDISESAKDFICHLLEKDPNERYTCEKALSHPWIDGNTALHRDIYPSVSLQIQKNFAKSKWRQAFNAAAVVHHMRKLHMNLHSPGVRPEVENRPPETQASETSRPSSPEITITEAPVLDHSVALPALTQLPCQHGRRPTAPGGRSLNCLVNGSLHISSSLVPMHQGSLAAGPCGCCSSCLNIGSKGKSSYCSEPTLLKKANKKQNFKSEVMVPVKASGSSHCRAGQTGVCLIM

SMILES strings stand for the structures.

Phosphatidylinositol 4-kinase beta, sequence (Q9UBF8 2-816 limits assumed): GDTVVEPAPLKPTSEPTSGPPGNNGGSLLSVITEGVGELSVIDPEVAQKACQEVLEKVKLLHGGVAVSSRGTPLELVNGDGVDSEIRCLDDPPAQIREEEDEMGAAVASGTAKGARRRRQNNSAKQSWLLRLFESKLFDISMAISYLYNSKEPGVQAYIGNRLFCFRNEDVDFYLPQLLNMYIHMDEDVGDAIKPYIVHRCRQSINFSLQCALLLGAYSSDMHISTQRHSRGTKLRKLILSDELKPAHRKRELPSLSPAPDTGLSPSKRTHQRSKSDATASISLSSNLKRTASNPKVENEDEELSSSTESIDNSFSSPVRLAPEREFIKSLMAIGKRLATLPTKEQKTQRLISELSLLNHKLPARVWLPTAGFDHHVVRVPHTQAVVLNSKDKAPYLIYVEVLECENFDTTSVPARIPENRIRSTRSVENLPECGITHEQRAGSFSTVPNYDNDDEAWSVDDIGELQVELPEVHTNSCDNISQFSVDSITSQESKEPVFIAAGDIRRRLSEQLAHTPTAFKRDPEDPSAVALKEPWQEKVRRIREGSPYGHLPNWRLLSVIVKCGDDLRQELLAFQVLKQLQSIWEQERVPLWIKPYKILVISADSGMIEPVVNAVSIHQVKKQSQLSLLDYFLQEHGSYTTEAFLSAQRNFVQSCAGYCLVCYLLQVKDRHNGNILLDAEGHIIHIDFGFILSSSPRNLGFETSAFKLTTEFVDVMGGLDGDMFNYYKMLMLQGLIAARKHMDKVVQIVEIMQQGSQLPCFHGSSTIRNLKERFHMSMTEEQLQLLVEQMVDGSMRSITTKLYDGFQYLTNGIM
Ephrin type-A receptor 5 (Homo sapiens), sequence (P54756 whole entry): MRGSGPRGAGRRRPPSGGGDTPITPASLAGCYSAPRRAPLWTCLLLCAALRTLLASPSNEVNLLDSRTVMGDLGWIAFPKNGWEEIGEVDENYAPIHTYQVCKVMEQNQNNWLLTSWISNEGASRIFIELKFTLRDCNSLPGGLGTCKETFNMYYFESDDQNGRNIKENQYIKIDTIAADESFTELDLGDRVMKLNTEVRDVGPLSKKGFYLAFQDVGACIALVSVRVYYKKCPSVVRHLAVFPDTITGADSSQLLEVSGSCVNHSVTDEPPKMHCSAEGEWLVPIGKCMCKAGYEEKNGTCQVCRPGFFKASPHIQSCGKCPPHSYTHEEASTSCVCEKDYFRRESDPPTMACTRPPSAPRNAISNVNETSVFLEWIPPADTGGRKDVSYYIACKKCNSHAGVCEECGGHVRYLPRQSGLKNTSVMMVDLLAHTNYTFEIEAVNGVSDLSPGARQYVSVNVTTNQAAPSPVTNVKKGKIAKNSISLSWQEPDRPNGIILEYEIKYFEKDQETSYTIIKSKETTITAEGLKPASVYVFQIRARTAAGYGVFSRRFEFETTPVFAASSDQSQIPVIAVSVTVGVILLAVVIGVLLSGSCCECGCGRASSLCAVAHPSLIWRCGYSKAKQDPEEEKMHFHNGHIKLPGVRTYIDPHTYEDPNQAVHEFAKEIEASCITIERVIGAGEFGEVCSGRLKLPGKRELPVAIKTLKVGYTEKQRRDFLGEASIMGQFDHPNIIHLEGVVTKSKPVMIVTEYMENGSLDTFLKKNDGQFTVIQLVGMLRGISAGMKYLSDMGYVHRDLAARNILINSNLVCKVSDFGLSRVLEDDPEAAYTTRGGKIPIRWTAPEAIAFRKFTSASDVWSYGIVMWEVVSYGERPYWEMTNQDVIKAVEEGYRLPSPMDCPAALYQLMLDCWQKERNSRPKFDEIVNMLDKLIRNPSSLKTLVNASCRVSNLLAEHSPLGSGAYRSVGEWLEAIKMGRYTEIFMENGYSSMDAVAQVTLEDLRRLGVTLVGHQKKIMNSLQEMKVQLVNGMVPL

For `Cn1cc(-n2cnc3c(NCc4nc5cc(Cl)c(Cl)cc5[nH]4)nc(N4CCOCC4)nc32)cn1`, the % of inhibition in experiment [1] was -10.8%. On to `COCC(=O)NC/C=C/c1ccc2ncnc(Nc3ccc(Oc4ccc(C)nc4)c(C)c3)c2c1` [CP-724714], for which the % of control in experiment [2] turned out to be 90%. In turn, `Cc1cc(F)c(C(=O)Nc2cccc(-c3nncn3C(C)C)n2)cc1-n1cnc(C2CC2)c1` gave a % of control in experiment [3] of 100%. As for `CNC(=O)Nc1ccc(-c2nc(N3CC4CCC(C3)O4)c3cnn(C4CCC5(CC4)OCCO5)c3n2)cc1`, in experiment [4], the % of control came to 100%. Consider `C=CC(=O)Nc1cccc(C(=O)Nc2ccc(Nc3cc(-c4[nH]c(SC)nc4C)ccn3)cc2)c1`, for which the % of control in experiment [5] was determined as 90%. In the case of `CN(C)CCOc1ccc(-c2nc(-c3ccncc3)c(-c3ccc4c(c3)CC/C4=N\O)[nH]2)cc1`, the % of control in experiment [6] was 38%. For `CCC(=O)N1CCN(c2ccc(-n3c(=O)ccc4cnc5ccc(-c6cnc7ccccc7c6)cc5c43)cc2C(F)(F)F)CC1`, the % of control in experiment [7] came to 100%. In the case of `COc1cc(N(C)c2ccnc3ccc(C(F)(F)F)cc23)cc(OC)c1OC`, the % binding in experiment [8] is 95%.
